According to patent US7241767B2, “Quinazoline(di)ones for invertebrate pest control” (E. I. du Pont de Nemours and Company, priority 2002, dated 2007):

Legend:
[1] = system: Potato Leafhopper (Empoasca fabae Harris); assay: Test H: control of Potato Leafhopper on Longio bean plant, contact and/or systemic; type: in vivo; conditions: 144 h, sprayed at 250 ppm, post-infested with adults, visually assessed after 6 days
Procedure: (§1) Test compounds were formulated using a solution containing 10% acetone, 90% water and 300 ppm X-77® Spreader Lo-Foam Formula non-ionic surfactant containing alkylarylpolyoxyethylene, free fatty acids, glycols and isopropanol (Loveland Industries, Inc.). The formulated compounds were applied in 1 mL of liquid through a SUJ2 atomizer nozzle with ⅛ JJ custom body (Spraying Systems Co.) positioned 1.27 cm (0.5 inches) above the top of each test unit. All experimental compounds in this screen were sprayed at 250 ppm and replicated three times. After spraying of the formulated test compound, each test unit was allowed to dry for 1 hour and then a black, screened cap was placed on top. The test units were held for 6 days in a growth chamber at 19–21° C. and 50–70% relative humidity. Each test unit was then visually assessed for insect mortality.
For evaluating control of Potato Leafhopper (Empoasca fabae Harris) through contact and/or systemic means, the test unit consisted of a small open container with a 5–6 day old Longio bean plant (primary leaves emerged) inside. White sand was added to the top of the soil and one of the primary leaves was excised prior to application. Test compounds were formulated and sprayed at 250 ppm and replicated three times as described for Test E. After spraying, the test units were allowed to dry for 1 hour before they were post-infested with 5 Potato Leafhoppers (18 to 21 day old adults). A black, screened cap is placed on the top of the cylinder. The test units were held for 6 days in a growth chamber at 19–21° C. and 50–70% relative humidity. Each test unit was then visually assessed for insect mortality.

[2] = system: cotton melon aphid (Aphis gossypii); assay: Test F: control of cotton melon aphid on cotton plant, contact and/or systemic; type: in vivo; conditions: 144 h, sprayed at 250 ppm, visually rated after 6 days
Procedure: as §1
For evaluating control of cotton melon aphid (Aphis gossypii) through contact and/or systemic means, the test unit consisted of a small open container with a 6–7-day-old cotton plant inside. This was pre-infested with 30–40 aphids on a piece of leaf according to the cut-leaf method described for Test E, and the soil of the test unit was covered with a layer of sand.
Test compounds were formulated and sprayed at 250 ppm as described for Test E. The applications were replicated three times. After spraying, the test units were maintained in a growth chamber and then visually rated as described for Test E.

[3] = system: Corn Planthopper (Peregrinus maidis); assay: Test G: control of Corn Planthopper on corn (maize) plant, contact and/or systemic; type: in vivo; conditions: 144 h, sprayed at 250 ppm, post-infested with nymphs, visually assessed after 6 days
Procedure: as §1
For evaluating control of Corn Planthopper (Peregrinus maidis) through contact and/or systemic means, the test unit consisted of a small open container with a 3–4 day old corn (maize) plant (spike) inside. White sand was added to the top of the soil prior to application. […] Each test unit was then visually assessed for insect mortality.

[4] = system: green peach aphid (Myzus persicae); assay: Test E: control of green peach aphid on radish plant, contact and/or systemic; type: in vivo; conditions: 144 h, sprayed at 250 ppm, visually assessed after 6 days
Source text: For evaluating control of green peach aphid (Myzus persicae) through contact and/or systemic means, the test unit consisted of a small- open container with a 12–15-day-old radish plant inside. This was pre-infested by placing on a leaf of the test plant 30–40 aphids on a piece of leaf excised from a culture plant (cut-leaf method). The larvae moved onto the test plant as the leaf piece desiccated. After pre-infestation, the soil of the test unit was covered with a layer of sand.
as §1

| Structure (SMILES) | mortality at 250 ppm [1] [%] | melting point [°C] | mortality at 250 ppm [2] [%] | mortality at 250 ppm [3] [%] | mortality at 250 ppm [4] [%] |
| --- | --- | --- | --- | --- | --- |
| CC(C)N1CN(C(=O)c2cc(C(F)(F)F)nn2-c2ncccc2Cl)c2c(Cl)cc(Cl)cc2C1=O [Compound 10, 6,8-Dichloro-1-[[1-(3-Chloro-2-pyridinyl)-3-(trifluoromethyl)-1H-pyrazol-5-yl]carbonyl]-2,3-dihydro-3-(1-methylethyl)-4(1H)-quinazolinone] | ≥ 80 | – | – | – | – |
| Cc1cc(Cl)cc2c1N(C(=O)c1cc(Cl)nn1-c1ncccc1Cl)CN(C(C)C)C2=O [Compound 14, 6-Chloro-1-[[3-Chloro-1-(3-Chloro-2-pyridinyl)-1H-pyrazol-5-yl]carbonyl]-2,3-dihydro-8-methyl-3-(1-methylethyl)-4(1H)-quinazolinone] | – | 219 to 220 | – | – | – |
| Cc1cc(Cl)cc2c1N(C(=O)c1cc(Br)nn1-c1ncccc1Cl)CN(C(C)C)C2=O [Compound 15, 1-[[3-Bromo-1-(3-Chloro-2-pyridinyl)-1H-pyrazol-5-yl]carbonyl]-6-Chloro-2,3-dihydro-8-methyl-3-(1-methylethyl)-4-(1H)-quinazolinone] | ≥ 80 | – | ≥ 80 | – | – |
| CN1CN(C(=O)c2cc(C(F)(F)F)nn2-c2ncccc2Cl)c2c(Cl)cc(Cl)cc2C1=O [Compound 13, 6,8-Dichloro-1-[[1-(3-Chloro-2-pyridinyl)-3-(trifluoromethyl)-1H-pyrazol-5-yl]carbonyl]-2,3-dihydro-3-methyl-4(1H)-quinazolinone] | ≥ 80 | – | ≥ 80 | ≥ 80 | ≥ 80 |
| Cc1cc(Cl)cc2c1N(C(=O)c1cc(Br)nn1-c1ncccc1Cl)CN(C)C2=O [Compound 18, 1-[[3-Bromo-1-(3-Chloro-2-pyridinyl)-1H-pyrazol-5-yl]carbonyl]-6-Chloro-2,3-dihydro-3,8-dimethyl-4(1H)-quinazolinone] | – | 254 to 255 | – | – | – |
| Cc1cc(Cl)cc2c1N(C(=O)c1cc(Cl)nn1-c1ncccc1Cl)CN(C)C2=O [Compound 17, 6-Chloro-1-[[3-Chloro-1-(3-Chloro-2-pyridinyl)-1H-pyrazol-5-yl]carbonyl]-2,3-dihydro-3,8-dimethyl-4(1H)-quinazolinone] | – | 238 to 240 | – | – | – |
| O=C1c2cc(Cl)cc(Cl)c2N(C(=O)c2cc(Cl)nn2-c2ncccc2Cl)C(c2c[nH]cn2)N1Cl (centres unmarked) [Compound 24] | ≥ 80 | – | – | – | – |
| CN1CN(C(=O)c2cc(Cl)nn2-c2ncccc2Cl)c2c(Cl)cc(Cl)cc2C1=O [Compound 11, 6-8-Dichloro-1-[[3-Chloro-1-(3-Chloro-2-pyridinyl)-1H-pyrazol-5-yl]carbonyl]-2,3-dihydro-3-methyl-4(1H)-quinazolinone] | ≥ 80 | – | ≥ 80 | – | ≥ 80 |
| O=C1c2cc(Cl)cc(Cl)c2N(C(=O)c2cc(Cl)nn2-c2ncccc2Cl)C(c2cccnc2)N1Cl (centres unmarked) [Compound 22] | – | 135 to 156 | – | – | – |
| O=C1NCN(C(=O)c2cc(Cl)nn2-c2ncccc2Cl)c2c(Cl)cc(Cl)cc21 [Compound 28, 6,8-Dichloro-1-[[3-Chloro-1-(3-Chloro-2-pyridinyl)-1H-pyrazol-5-yl]carbonyl]-2,3-dihydro-4(1H)-quinazolinone] | – | – | – | – | ≥ 80 |
| O=C1NCN(C(=O)c2cc(C(F)(F)F)nn2-c2ncccc2Cl)c2c(Cl)cc(Cl)cc21 [Compound 29, 6,8-Dichloro-1-[[1-(3-Chloro-2-pyridinyl)-3-(trifluoromethyl)-1H-pyrazol-5-yl]carbonyl]-2,3-dihydro-4(1H)-quinazolinone] | ≥ 80 | – | ≥ 80 | – | ≥ 80 |
| Cc1cccc2c1N(C(=O)c1cc(Cl)nn1-c1ncccc1Cl)C(C(=O)O)N(C(C)C)C2=O (centres unmarked) [Compound 20] | – | 143 to 190 | – | – | – |
| CN1CN(C(=O)c2cc(Br)nn2-c2ncccc2Cl)c2c(Cl)cc(Cl)cc2C1=O [Compound 12, 1-[[3-Bromo-1-(3-Chloro-2-pyridinyl)-1H-pyrazol-5-yl]carbonyl]-6,8-dichloro-2,3-dihydro-3-methyl-4(1H)-quinazolinone] | ≥ 80 | – | ≥ 80 | ≥ 80 | ≥ 80 |
| CC(C)N1CN(C(=O)c2cc(Cl)nn2-c2ncccc2Cl)c2c(Cl)cc(Cl)cc2C1=O [Compound 8, 6,8-Dichloro-1-[[3-Chloro-1-(3-Chloro-2-pyridinyl)-1H-pyrazol-5-yl]carbonyl]-2,3-dihydro-3-(1-methylethyl)-4(H)-quinazolinone] | ≥ 80 | – | ≥ 80 | – | ≥ 80 |
| CC(C)N1CN(C(=O)c2cc(Br)nn2-c2ncccc2Cl)c2c(Cl)cc(Cl)cc2C1=O [Compound 9, 1-[[3-Bromo-1-(3-Chloro-2-pyridinyl)-1H-pyrazol-5-yl]carbonyl]-6,8-dichloro-2,3-dihydro-3-(1-methylethyl)-4-(1H)-quinazolinone] | ≥ 80 | – | ≥ 80 | – | ≥ 80 |
| Cc1cc(Cl)cc2c1N(C(=O)c1cc(C(F)(F)F)nn1-c1ncccc1Cl)CN(C)C2=O [Compound 19, 6-Chloro-1-[[1-(3-Chloro-2-pyridinyl)-3-(tifluoromethyl)-1H-pyrazol-5-yl]carbonyl]-2,3-dihydro-3,8-dimethyl-4(1H)-quinazolinone] | ≥ 80 | – | ≥ 80 | – | ≥ 80 |
| Cc1cc(Cl)cc2c1N(C(=O)c1cc(C(F)(F)F)nn1-c1ncccc1Cl)CN(C(C)C)C2=O [Compound 16, 6-Chloro-1-[[1-(3-Chloro-2-pyridinyl)-3-(trifluoromethyl)-1H-pyrazol-5-yl]carbonyl]-2,3-dihydro-8-methyl-3-(1-methylethyl)-4(1H)-quinazolinone] | ≥ 80 | – | ≥ 80 | – | – |
